Legend:
Assay type in all cases: biochemical
[1] = target: T1, Gluconobacter morbifer alcohol dehydrogenase gmoADH, SEQ ID NO: 207 (Gluconobacter morbifer, UniProt G6XLF0); experiment: Alcohol dehydrogenase (EG oxidation) Michaelis-Menten kinetics, gmoADH; conditions: role: substrate
T1 sequence (G6XLF0 1-343): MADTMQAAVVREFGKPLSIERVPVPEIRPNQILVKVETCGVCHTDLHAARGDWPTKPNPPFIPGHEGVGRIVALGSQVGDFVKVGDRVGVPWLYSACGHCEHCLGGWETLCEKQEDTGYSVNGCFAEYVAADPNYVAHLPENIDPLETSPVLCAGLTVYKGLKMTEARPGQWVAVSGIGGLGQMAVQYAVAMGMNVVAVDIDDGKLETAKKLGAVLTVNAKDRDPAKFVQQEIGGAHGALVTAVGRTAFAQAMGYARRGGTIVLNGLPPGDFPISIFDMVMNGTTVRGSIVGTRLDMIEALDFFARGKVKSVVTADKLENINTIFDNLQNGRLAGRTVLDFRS
Text: (§1) Enzyme expression and purification: The enzymes of interest were genetically engineered in the E. coli BL21 (DE3) strain on a high copy plasmid under control of the T7 promoter. The enzymes were tagged with a hexahistidine (His-tag) sequence to facilitate for purification. Post-expression, the His-tagged enzymes were selectively bound to a nickel-charged immobilized metal affinity chromatography (IMAC) resin, exploiting the high affinity between histidine residues and nickel ions. Upon washing away non-specifically bound proteins, the His-tagged enzymes were eluted with an imidazole-containing buffer and subsequently used for enzymatic assays.
(§2) Enzyme assays: Standard enzyme characterization protocols were performed to determine the activities of the enzymes. Dehydrogenase activity against the substrates was determined using a continuous assay following the increase in absorbance at 340 nm ε340 (NADH)=6.22 mM^−1. cm^−1, and ε340 (NADPH)=6.2 mM^−1·cm^−1]. […]
(§3) The candidate alcohol dehydrogenase enzymes were next characterized for their enzymatic activity. […] Reactions were initiated by the addition of the purified enzyme and enzymatic activity was measured by monitoring the formation of the product (glycolaldehyde) over time as described in Example 8.1. […]

[2] = target: Moraxella sp. (strain TAE123) alcohol dehydrogenase mtaADH, SEQ ID NO: 209 (Moraxella sp. TAE123, UniProt Q8GIX7); experiment: Alcohol dehydrogenase (EG oxidation) Michaelis-Menten kinetics, mtaADH; conditions: role: substrate; relative to goxADH
Moraxella sp. (strain TAE123) alcohol dehydrogenase mtaADH, SEQ ID NO: 209, sequence (Q8GIX7 whole entry): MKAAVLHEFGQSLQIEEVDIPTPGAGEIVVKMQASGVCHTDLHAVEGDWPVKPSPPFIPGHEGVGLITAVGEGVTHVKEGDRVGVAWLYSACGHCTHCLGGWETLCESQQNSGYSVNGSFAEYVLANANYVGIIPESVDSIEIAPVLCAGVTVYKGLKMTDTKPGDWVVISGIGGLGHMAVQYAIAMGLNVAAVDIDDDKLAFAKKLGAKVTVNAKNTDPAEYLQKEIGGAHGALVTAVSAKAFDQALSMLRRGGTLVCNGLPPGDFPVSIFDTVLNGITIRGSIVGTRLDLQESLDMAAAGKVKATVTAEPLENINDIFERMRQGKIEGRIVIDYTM
Text: as §1, §2, §3

[3] = target: T2, Gluconobacter diazotrophicus alcohol dehydrogenase gdiADH, SEQ ID NO: 208 (Gluconacetobacter diazotrophicus, UniProt A9HNA5); experiment: Alcohol dehydrogenase (EG oxidation) Michaelis-Menten kinetics, gdiADH; conditions: role: substrate
T2 sequence (A9HNA5 1-354): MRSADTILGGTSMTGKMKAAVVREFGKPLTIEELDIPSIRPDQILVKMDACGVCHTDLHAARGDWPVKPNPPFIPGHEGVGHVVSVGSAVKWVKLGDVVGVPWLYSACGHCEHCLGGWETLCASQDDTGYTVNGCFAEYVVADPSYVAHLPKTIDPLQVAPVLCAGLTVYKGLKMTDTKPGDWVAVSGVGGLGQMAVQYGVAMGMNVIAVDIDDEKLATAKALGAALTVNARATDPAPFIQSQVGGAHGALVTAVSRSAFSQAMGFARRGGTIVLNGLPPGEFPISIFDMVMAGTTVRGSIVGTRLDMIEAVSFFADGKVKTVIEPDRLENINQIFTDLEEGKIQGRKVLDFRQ
Text: as §1, §2, §3

[4] = target: Mycobacterium marinum alcohol dehydrogenase mmaADH, SEQ ID NO: 215 (Mycobacterium marinum, UniProt B2HH60); experiment: Alcohol dehydrogenase (EG oxidation) Michaelis-Menten kinetics, mmaADH; conditions: role: substrate; relative to goxADH
Mycobacterium marinum alcohol dehydrogenase mmaADH, SEQ ID NO: 215, sequence (B2HH60 entry or part of it): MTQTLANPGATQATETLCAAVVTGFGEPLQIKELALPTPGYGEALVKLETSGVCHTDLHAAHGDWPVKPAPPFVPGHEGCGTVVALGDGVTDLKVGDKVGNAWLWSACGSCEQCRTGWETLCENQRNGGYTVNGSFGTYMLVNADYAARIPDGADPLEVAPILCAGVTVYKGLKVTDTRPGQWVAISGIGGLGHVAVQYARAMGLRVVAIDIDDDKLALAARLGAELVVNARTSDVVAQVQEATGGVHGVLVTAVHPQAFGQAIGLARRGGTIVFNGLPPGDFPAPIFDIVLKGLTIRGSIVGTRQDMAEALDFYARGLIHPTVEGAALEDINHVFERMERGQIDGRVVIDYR
Text: as §1, §2, §3

[5] = target: T3, Gluconobacter oxydans alcohol dehydrogenase goxADH (Gox0313), SEQ ID NO: 206 (Gluconobacter oxydans, UniProt Q5FU50); experiment: Alcohol dehydrogenase (EG oxidation) Michaelis-Menten kinetics, goxADH; conditions: role: substrate; relative to goxADH
T3 sequence (Q5FU50 1-343): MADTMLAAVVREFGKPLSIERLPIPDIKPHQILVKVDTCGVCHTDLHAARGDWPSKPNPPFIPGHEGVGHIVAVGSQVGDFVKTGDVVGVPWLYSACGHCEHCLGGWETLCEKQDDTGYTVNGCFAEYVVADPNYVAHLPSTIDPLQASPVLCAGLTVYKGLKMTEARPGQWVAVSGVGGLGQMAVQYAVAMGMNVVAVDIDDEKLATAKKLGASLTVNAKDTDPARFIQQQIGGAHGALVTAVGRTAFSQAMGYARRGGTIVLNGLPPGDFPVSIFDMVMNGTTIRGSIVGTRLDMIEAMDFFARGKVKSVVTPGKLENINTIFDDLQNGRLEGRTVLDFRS
Text: as §1, §2, §3

Compound: OCCO [ethylene glycol]
- Relative Vmax ([1]; relative to goxADH): 2.5
- maximum catalytic rate (EG turnover rate), fold higher than goxADH ([1]; versus goxADH): 2.5 fold
- Relative Vmax [2]: 1.6
- Relative Vmax ([3]; relative to goxADH): 3.8
- maximum catalytic rate (EG turnover rate), fold higher than goxADH ([3]; versus goxADH): 3.8 fold
- Relative Vmax [4]: 1.1
- Relative Vmax [5]: 1.0

Reference: patent US20260357306A1, “ONE-POT FERMENTATIVE PRODUCTION OF GLYCOLATE OR OTHER HYDROXYCARBOXYLIC ACIDS” (PHYCUS BIOTECHNOLOGIES INC., priority 2023, published 2026)
